Test results: US6686209B2, “Reagents for detecting cannabinoids” (Lifepoint, Inc., priority 2001, dated 2004)

Tested on: antibodies against Δ^9-THC
Test: Cross-reactivity by displacement of cannabinol-based tracer from immobilized antibody (continuous flow)
Format: binding
Details: for MAX FI (mV): sample with 25 ng/mL of unlabeled substance, cannabinol-based tracer (FIG. 10) displaced, 0 ng/mL baseline 422; for percent cross-reactivity: 25 ng/mL
Protocol: The lower binding affinity of an antibody to a particular tracer may be measured by the percent cross-reactivity of the antibody to the tracer as compared to the analyte in a sample. For example, immobilized antibodies against Δ^9-THC were bound with the cannabinol-based tracer (shown in FIG. 10) similar to the methods as described in Example VII. Different samples containing 25 ng/mL of Δ^9-THC (unlabeled), Δ^8-THC (unlabeled), unlabeled 9-carboxy-Δ^9-THC (THCA), cannabidiol (unlabeled), or unlabeled cannabinol were flowed through different columns having the antibody-tracer complex to determine the amount of cross-reactivity. The amount of tracer displaced was then compared between the different samples.
Using Δ^9-THC as the standard (i.e., Δ^9-THC set at 100% cross-reactivity) (1602/1602)), 9-carboxy-Δ^9-THC has a percent cross-reactivity of about 540% (8700/1602), and cannabinol has a percent cross-reactivity of about 79% (1266/1602). If 9-carboxy-Δ^9-THC were used as the standard (i.e., 9-carboxy-Δ^9-THC set at 100% cross-reactivity (8700/8700)), then the percent cross-reactivity for cannabinol would be about 14.5% (1266/8700). If Δ^8-THC were used as a standard (i.e., A ^8-THC set at 100% cross-reactivity (1488/1488)), then the present cross-reactivity for cannabinol would be about 85% (1266/1488).

SMILES | MAX FI (mV) | percent cross-reactivity (9-carboxy-Δ^9-THC as the standard (100%)) | percent cross-reactivity (Δ^8-THC as the standard (100%)) | percent cross-reactivity (Δ^9-THC as the standard (100%))
C=C(C)[C@@H]1CCC(C)=C[C@H]1c1c(O)cc(CCCCC)cc1O [Cannabidiol, cannabidiol] | 624 | – | – | –
CCCCCc1cc(O)c2c(c1)OC(C)(C)c1ccc(C)cc1-2 [Cannabinol, 6,6,9-trimethyl-3-pentyl-6H-dibenzo[b,d]pyran-1-ol] | 1266 | about 14.5% | about 85% | about 79%
CCCCCc1cc(O)c2c(c1)OC(C)(C)[C@@H]1CCC(C(=O)O)=C[C@@H]21 [THCA, 9-carboxy-Δ^9-THC] | 8700 | – | – | about 540%
CCCCCc1cc(O)c2c(c1)OC(C)(C)[C@@H]1CC=C(C)C[C@@H]21 [Δ^8-THC] | 1488 | – | – | –
CCCCCc1cc(O)c2c(c1)OC(C)(C)[C@@H]1CCC(C)=C[C@@H]21 [Δ^9-THC, Δ^9-tetrahydrocannabinol] | 1602 | – | – | –
